Test results: patent publication US20240189277A1, “OPHTHALMIC FORMULATIONS FOR SUSTAINED NEUROPROTECTION” (priority 2021, published 2024)

Tests used:
primary mouse RGCs = experiment: Retinal ganglion cell (RGC) viability assay (CellTiter-Glo); format: cell-based; details: concentrations as high as 10 mg/mL; with 1 μM sunitinib malate; 72 h
Experimental: Mouse RGCs were purified as described ny Welsbie, D. S., et al., Proceedings of the National Academy of Sciences of the United States of America, 2013. 110(10): p. 4045-4050. Purified cells were plated on a poly-D-lysine/laminin coated 384-well culture dish at 4,000 cells per well and cultured in Neurobasal media supplemented with B-27, N-2, L-glutamine, and penicillin/streptomycin. Sunitinib malate (1 μM) was dissolved in dimethyl sulfoxide (DMSO) and added at the same time cells were plated (250 nL into 50 μL of media) to promote RGC survival. Then, either PBS or different volumes of sodium pamoate dissolved in DMSO was added at the concentrations indicated (0.1, 1, 10 mg/mL) to determine whether there was any effect on RGC survival. A PBS control was included for each pamoic acid concentration to account for dilutional effects. After cells were cultured for 72 h at 37° C., viability was measured by CellTiter-Glo (Promega) luminescence.

physchem = details: 37 °C, aqueous buffer, thermodynamic from solid
Experimental: To measure solubility, 5 mg of sunitinib malate or SPC complex was placed in microcentrifuge tubes with 1 mL of PBS. The samples were then placed on an orbital shaker (150 rpm) in an incubator at 37° C. After 7 days, samples were collected and centrifuged at 17,000 rcf for 30 min. The supernatant was collected, and concentrations were measured using HPLC (Shimadzu Prominence LC-20). Supernatant samples were mixed 1:10 with acetonitrile containing 0.1% trifluoroacetic acid. Acetonitrile and water was used as a mobile phase at a ratio of 55:45. Samples were eluted isocratically at a flow rate of 1 mL/min through a C18-reversed phase column at 40° C. UV absorbance was monitored at 431 nm.

[1] = test system: corneal neovascularization; details: rats; cited from earlier work

SMILES	effect on primary mouse RGC survival compared to PBS (primary mouse RGCs)	solubility at 7 days (physchem) [µg/mL]	effect on corneal neovascularization after subconjunctival injection [1]
O=C(O)c1cc2ccccc2c(Cc2c(O)c(C(=O)O)cc3ccccc23)c1O [Pamoic acid]	no detrimental effect		
CCN(CC)CCNC(=O)c1c(C)[nH]c(/C=C2\C(=O)Nc3ccc(F)cc32)c1C [sunitinib malate, Sunitinib malate]		525 ± 63	no effect on neovascularization
